We go through two molecules from publication PMC9138545, “Incorporation of Oxidized Phenylalanine Derivatives into Insulin Signaling Relevant Proteins May Link Oxidative Stress to Signaling Conditions Underlying Chronic Insulin Resistance” (Biomedicines, 2022).

Assay [1] has as its system Akt (Ser473). In words: Western blot, activating phosphorylation of Akt (Ser473). In kind it is cell-based. The following applies: n = 4–8; for insulin-induced Akt phosphorylation: 400 nmol/L insulin, adipocytes, HEK cells, podocytes, macrophages; for basal Akt phosphorylation: without insulin, cells grown on o- or m-Tyr medium. As for the experimental part:
Early passages of mouse embryo fibroblast (3T3-L1) (ATCC, Manassas, VA, US) were cultured in Dulbecco’s modified Eagle medium (DMEM, Sigma Aldrich, Budapest, Hungary, CAT number: D6046; Invitrogen, Waltham, MA, USA, CAT number: 41966-029) supplemented with 100 U/mL penicillin, 0.1 mg/mL streptomycin (Gibco, Budapest, Hungary, CAT number: 15070-063) and 10% heat-inactivated Fetal Bovine Serum (FBS, Gibco, CAT number: 16170-078), supplemented with 398 nM p-, m-, or o-Tyr (equimolar to the original p-Tyr content of the medium) purchased from Sigma (CAT number: para-Tyr: T8566, m-Tyr: T3629, o-Tyr: 93851). Media contained 25 or 5 mmol/L glucose (experiment dependent) pyruvate and L-glutamine. Cells were grown at 37 °C and 5% CO2. Adipocyte differentiation was achieved by DMEM supplemented with 10% FBS (Gibco, Csertex, Budapest, Hungary, CAT number: 10106-169) (FBS) and a […] insulin (Sigma Aldrich, Budapest, Hungary, CAT number: I 9278), […] isobuthylmethylxanthine (Sigma Aldrich, Budapest, Hungary, CAT number: I 5879), and 250 nmol/L dexamethasone (Sigma Aldrich, Budapest, Hungary, CAT number: 861871) containing cocktail. From day 4 onward, cultures were maintained in DMEM containing 1.5 μg/mL insulin and 10% FBS with a medium change every other day until experimental treatments were started. After 90% of the cell population reached the adipocyte phenotype, prior to all treatments, cells were incubated overnight in serum-deprived medium. Experimental treatment was performed in serum-deprived medium containing 200 or 400 nmol/L insulin, for 5 min.
The conditionally immortalized human podocyte cell line (provided by Moin Saleem, University of Bristol, UK) was cultured in RPMI1640 medium (R8756, Sigma Aldrich, Budapest, Hungary) supplemented with 10% heat-inactivated FBS (16170-078, Gibco, Budapest, Hungary), insulin-transferrin-selenium supplement (41400-045, Gibco), 100 U/mL penicillin, 0.1 mg/mL streptomycin (P4333, Sigma), and […] (equimolar to the original p-Tyr content of the medium) para-, meta-, or ortho-Tyr. The cells were grown at 33 °C 5% CO2, and when they reached 40–60% confluency they were transferred to 37 °C to differentiate. Following the thermoswitching, cells were kept on RPMI1640 medium containing 2% FBS, antibiotics, and different tyrosines. Before every treatment, cells were incubated in serum-deprived medium overnight.
HEK-293 immortalized cell line (ATCC, Manassas, VA, USA) of epithelial morphology and the J774A.1 mouse BALB/C monocyte-macrophage cell lines (91051511-1VL, Sigma Aldrich, Budapest, Hungary) were cultured in Petri dishes with a medium composed of Dulbecco’s modified Eagle’s medium (DMEM, Sigma Aldrich, Budapest, Hungary, CAT number: D6046, Invitrogen, CAT number: 41966-029), with a 10% heat-inactivated FBS supplementation (16170-078, Gibco), insulin-transferrin-selenium supplement (41400-045, Gibco, Budapest, Hungary,), 100 U/mL penicillin and 0.1 mg/mL streptomycin (P4333, Sigma) and 398 nM para (5 and 25 mmol/L), meta-, or ortho-Tyr (T8566, T3629, 93851, Sigma). Before treatment, cells were incubated in serum-deprived medium overnight as well. […]
The samples of lysates were vortexed and centrifuged (10 min, 13,000 rpm, at 4 °C). Protein content of the samples was determined by the Lowry method using bovine serum albumin as a standard. […]
In general terms: Immunoblotting shows a protein as a band on a membrane.

Assay [2] deals with plants. The note with it: ref [41]; cited from earlier work. The text has this: (§1) Furthermore, m- and o-Tyr may have a role beyond being markers ROS attack. […] For example, we have described that patients on renal replacement therapy show a connection between plasma levels of o-Tyr and erythropoietin (EPO) resistance. In a further set of experiments, m- and o-Tyr in ...
The test system of assay [3] is concomitant tumor growth. The following applies: ref [42]; cited from earlier work.
Excerpt: as §1

Regarding `NC(Cc1ccccc1O)C(=O)O` (stereo not drawn) [o-Tyr, ortho-tyrosine], in assay [1], the “insulin-induced Akt phosphorylation” value was “could not be further raised by insulin treatment” and the “basal Akt phosphorylation” value is “either unchanged or higher”.
For the molecule `N[C@@H](Cc1cccc(O)c1)C(=O)O` [m-Tyr, meta-tyrosine], in assay [2], the “natural herbicide, plant growth” value was “act as a natural herbicide and inhibit the growth of plants”. Further, in assay [3], the “inhibition of concomitant tumor growth” value is given as “involved in the inhibition of concomitant tumor growth”. In assay [1], the “insulin-induced Akt phosphorylation” value was “could not be further raised by insulin treatment” and the “basal Akt phosphorylation” value is recorded as “either unchanged or higher”.
